The values below come from US20260232876A1, “POROUS METAL STRUCTURES INCORPORATING NANOPARTICLES” (Yissum Research Development Company of the Hebrew …, priority 2023, published 2026).

The nature of the data set: Thymol retention on porous titanium in open air, remaining thymol by HPLC. In kind it is physicochemical. Particulars: 360 h.

For `Cc1ccc(C(C)C)c(O)c1` [free thymol, thymol], the “amount of thymol remaining in the samples” value is recorded as “almost no thymol left”.
